In US20140080810A1 (Exelixis, Inc., priority 2010, published 2014):

Tests used:
mTOR/GbL/Raptor (mTORC1) = mTOR/GbL/Raptor (mTORC1) (Homo sapiens, UniProt P42345); experiment: mTOR/GbL/Raptor (mTORC1) ELISA Assay; assay type: biochemical; conditions: 4EBP1 used as substrate for mTOR/GbL/raptor kinase; read-out: PI3K biochemical IC50 values mTOR
Description: The measurement of mTORC1 enzyme activity was performed in an ELISA assay format following the phosphorylation of 4E-BP1 protein. All experiments were performed in the 384-well format. Generally, 0.5 μL DMSO containing varying concentrations of the test Compound was mixed with 15 μL enzyme solution. Kinase reactions were initiated with the addition of 15 μL of substrates-containing solution. The assay conditions were as follows; 0.2 nM mTORC1, 10 μM ATP and 50 nM NHis-tagged 4E-BPI in 20 mM Hepes, pH 7.2, 1 mM DTT, 50 mM NaCl, 10 mM MnCl2, 0.02 mg/mL BSA, 0.01% CHAPS, 50 mM β-glycerophosphate. Following an incubation of 120 minutes at ambient temperature, 20 μL of the reaction volume was transferred to a Ni-Chelate-coated 384-well plate. The binding step of the 4E-BP1 protein proceeded for 60 minutes, followed by washing 4 times each with 50 μL of Tris-buffered saline solution (TBS). Anti-phospho-4E-BP1 rabbit-IgG (20 μL, 1:5000) in 5% BSA-TBST (0.2% Tween-20 in TBS) was added and further incubated for 60 minutes. Incubation with a secondary HRP-tagged anti-IgG was similarly performed after washing off the primary antibody (4 washes of 50 μL). Following the final wash step with TBST, 20 μL of SuperSignal ELISA Femto (Pierce Biotechnology) was added and the luminescence measured using an EnVision plate reader.

PI3Kα E545K = PI3Kα E545K (Homo sapiens, UniProt P42336, E545K); experiment: PI3K Biochemical Assay; conditions: PIP2 used as substrate
Description: (§1) PI3Kα activity is measured as the percent of ATP consumed following the kinase reaction using luciferase-luciferin-coupled chemiluminescence. Reactions were conducted in 384-well white, medium binding microtiter plates (Greiner). Kinase reactions were initiated by combining test compounds, ATP, substrate (PIP2), and kinase in a 20 μL volume in a buffer solution. The standard PI3Kalpha assay buffer is composed 50 mM Tris, pH 7.5, 1 mM EGTA, 10 mM MgCl2, 1 mM DTT and 0.03% CHAPS. The standard assay concentrations for enzyme, ATP, and substrate are 1.5 nM, 1 μM, and 10 μM, respectively. The reaction mixture was incubated at ambient temperature for approximately 2 h. Following the kinase reaction, a 10 μL aliquot of luciferase-luciferin mix (Promega Kinase-Glo) was added and the chemiluminescence signal measured using a Victor2 plate reader (Perkin Elmer). Total ATP consumption was limited to 40-60% and IC50 values of control compounds correlate well with literature references. Substituting PI3Kα with PI3Kβ, PI3Kγ, or PI3Kδ, the inhibitory activity of the compounds for the other isoforms of I3K were measured.

PI3Kα H1047R = PI3Kα H1047R (Homo sapiens, UniProt P42336, H1047R); experiment: PI3K Biochemical Assay; conditions: PIP2 used as substrate
Description: as §1

PI3Kγ = PI3Kγ (Homo sapiens, UniProt P48736); experiment: PI3K Biochemical Assay; conditions: PIP2 used as substrate
Description: as §1

PI3Kδ = PI3Kδ (Homo sapiens, UniProt O00329); experiment: PI3K Biochemical Assay; conditions: PIP2 used as substrate; read-out: PI3K biochemical IC50 values P13Kδ
Description: as §1

Chain of PI3Kδ (O00329 whole entry): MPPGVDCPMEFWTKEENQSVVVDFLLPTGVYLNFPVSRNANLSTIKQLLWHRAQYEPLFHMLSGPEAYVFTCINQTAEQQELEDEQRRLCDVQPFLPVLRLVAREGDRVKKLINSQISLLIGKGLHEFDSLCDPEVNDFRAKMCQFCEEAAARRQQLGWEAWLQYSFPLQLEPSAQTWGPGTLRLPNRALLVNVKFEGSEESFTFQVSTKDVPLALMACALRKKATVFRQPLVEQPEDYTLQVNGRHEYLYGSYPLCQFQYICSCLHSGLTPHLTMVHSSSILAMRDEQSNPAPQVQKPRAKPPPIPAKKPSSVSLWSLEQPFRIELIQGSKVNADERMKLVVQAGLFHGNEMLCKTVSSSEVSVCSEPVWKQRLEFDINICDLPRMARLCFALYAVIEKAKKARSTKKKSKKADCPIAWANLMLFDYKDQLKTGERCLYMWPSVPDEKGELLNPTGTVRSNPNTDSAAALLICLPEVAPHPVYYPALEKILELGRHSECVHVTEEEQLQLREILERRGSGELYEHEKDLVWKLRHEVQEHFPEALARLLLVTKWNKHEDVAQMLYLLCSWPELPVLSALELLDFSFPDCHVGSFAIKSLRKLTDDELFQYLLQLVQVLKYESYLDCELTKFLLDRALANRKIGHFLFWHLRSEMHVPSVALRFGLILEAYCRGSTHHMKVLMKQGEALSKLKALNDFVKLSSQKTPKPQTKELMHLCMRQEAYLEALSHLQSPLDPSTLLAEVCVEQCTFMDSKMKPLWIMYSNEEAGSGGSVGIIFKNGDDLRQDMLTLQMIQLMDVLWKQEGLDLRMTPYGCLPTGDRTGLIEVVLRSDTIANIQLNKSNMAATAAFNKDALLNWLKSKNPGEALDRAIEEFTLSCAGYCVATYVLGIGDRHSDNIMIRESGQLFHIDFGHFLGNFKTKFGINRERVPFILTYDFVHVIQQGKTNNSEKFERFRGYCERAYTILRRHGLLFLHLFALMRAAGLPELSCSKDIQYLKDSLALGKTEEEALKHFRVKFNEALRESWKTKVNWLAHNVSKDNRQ
Chain of PI3Kδ (P27986 whole entry partner): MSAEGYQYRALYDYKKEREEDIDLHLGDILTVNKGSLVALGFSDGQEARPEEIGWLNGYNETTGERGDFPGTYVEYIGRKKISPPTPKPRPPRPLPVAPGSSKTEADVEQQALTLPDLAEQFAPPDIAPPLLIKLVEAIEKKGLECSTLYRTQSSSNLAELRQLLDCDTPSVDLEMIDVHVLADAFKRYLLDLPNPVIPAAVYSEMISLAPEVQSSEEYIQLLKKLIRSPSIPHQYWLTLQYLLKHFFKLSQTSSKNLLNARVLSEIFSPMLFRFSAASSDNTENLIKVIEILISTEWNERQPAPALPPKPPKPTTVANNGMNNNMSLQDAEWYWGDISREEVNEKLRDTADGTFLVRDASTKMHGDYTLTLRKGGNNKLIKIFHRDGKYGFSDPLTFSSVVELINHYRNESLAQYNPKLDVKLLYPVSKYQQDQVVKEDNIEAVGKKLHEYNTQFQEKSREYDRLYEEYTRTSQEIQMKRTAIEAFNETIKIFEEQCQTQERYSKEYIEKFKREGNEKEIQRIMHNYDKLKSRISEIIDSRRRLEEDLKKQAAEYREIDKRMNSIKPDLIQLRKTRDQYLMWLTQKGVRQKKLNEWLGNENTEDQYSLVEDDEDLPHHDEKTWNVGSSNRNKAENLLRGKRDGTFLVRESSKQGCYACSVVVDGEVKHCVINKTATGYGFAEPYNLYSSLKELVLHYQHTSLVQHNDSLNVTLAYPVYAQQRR
Chain of PI3Kγ (P48736 whole entry): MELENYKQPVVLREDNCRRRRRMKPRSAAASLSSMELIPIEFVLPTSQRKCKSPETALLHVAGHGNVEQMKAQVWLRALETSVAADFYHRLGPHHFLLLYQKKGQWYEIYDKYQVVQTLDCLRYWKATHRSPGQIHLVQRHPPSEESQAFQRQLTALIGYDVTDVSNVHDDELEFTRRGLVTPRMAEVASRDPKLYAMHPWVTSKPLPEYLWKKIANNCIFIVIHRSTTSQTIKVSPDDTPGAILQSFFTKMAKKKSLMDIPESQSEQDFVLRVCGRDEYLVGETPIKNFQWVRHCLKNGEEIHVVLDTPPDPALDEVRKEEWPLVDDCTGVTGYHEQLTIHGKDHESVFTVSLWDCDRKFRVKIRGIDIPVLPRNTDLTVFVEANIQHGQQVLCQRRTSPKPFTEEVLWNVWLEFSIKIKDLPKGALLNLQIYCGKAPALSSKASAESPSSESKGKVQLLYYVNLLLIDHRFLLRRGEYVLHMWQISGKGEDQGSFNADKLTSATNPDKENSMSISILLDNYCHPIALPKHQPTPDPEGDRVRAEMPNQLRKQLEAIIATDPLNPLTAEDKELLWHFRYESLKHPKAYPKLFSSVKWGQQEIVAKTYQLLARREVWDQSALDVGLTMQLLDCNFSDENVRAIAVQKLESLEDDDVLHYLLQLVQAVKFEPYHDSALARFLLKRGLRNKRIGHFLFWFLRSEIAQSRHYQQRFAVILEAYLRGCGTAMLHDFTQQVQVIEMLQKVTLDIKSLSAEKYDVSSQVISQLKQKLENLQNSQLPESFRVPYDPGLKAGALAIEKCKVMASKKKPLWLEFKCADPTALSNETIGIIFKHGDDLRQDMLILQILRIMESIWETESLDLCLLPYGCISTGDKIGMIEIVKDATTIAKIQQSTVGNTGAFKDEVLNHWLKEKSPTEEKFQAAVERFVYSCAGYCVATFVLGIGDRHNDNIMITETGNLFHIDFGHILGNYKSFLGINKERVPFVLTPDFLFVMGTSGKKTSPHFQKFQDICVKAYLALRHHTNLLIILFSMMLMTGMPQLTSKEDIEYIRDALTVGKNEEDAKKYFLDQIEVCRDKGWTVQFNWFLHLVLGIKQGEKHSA
Chain of PI3Kα H1047R (P42336 whole entry H1047R): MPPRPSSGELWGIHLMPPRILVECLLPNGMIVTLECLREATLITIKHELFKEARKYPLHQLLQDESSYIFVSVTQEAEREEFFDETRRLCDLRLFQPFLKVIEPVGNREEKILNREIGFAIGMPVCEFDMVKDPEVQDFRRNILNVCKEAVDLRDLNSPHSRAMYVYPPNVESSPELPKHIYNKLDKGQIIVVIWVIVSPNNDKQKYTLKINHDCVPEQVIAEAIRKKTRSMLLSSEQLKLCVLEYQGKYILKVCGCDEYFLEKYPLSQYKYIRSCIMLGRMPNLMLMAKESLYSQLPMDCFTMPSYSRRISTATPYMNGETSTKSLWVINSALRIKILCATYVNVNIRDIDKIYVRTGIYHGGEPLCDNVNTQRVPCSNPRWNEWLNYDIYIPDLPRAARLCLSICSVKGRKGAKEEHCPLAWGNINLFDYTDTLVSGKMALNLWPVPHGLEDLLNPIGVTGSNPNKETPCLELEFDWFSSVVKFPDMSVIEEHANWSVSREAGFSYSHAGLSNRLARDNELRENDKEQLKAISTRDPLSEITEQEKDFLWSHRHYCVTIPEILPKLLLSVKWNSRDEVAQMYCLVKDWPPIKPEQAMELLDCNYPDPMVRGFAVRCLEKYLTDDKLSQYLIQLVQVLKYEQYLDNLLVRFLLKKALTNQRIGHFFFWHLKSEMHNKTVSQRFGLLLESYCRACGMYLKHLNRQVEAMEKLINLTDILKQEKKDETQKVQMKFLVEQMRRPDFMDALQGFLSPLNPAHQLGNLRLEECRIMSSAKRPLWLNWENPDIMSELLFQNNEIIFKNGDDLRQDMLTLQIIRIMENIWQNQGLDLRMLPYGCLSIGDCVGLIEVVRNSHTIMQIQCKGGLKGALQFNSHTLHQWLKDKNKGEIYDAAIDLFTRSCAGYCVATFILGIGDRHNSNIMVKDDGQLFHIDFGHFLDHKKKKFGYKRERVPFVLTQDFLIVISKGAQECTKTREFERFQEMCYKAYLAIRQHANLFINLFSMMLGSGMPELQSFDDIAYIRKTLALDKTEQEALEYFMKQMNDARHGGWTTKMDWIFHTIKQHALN
Chain of PI3Kα H1047R (P27986 whole entry partner): as the sequence (P27986 whole entry partner) above
Chain of PI3Kα E545K (P42336 whole entry E545K): as the sequence (P42336 whole entry H1047R) above, with E545K, R1047H counted along it
Chain of PI3Kα E545K (P27986 whole entry partner): as the sequence (P27986 whole entry partner) above

| Structure (SMILES) | IC50 (mTOR/GbL/Raptor (mTORC1)) [nM] | IC50 (PI3Kα E545K) [nM] | IC50 (PI3Kα H1047R) [nM] | IC50 (PI3Kγ) [nM] | IC50 (PI3Kδ) [nM] |
| --- | --- | --- | --- | --- | --- |
| COc1ccc2c(N3CCOc4ccc(-c5cnc6nc(C)[nH]c6c5)cc4C3)nc(CN(C)C)nc2c1 [Compound 696] | 381 | 9 | 5 | 1800 | 149 |
| Cc1nc2ncc(-c3ccc4c(c3)CN(c3nc(CN(C)C)nc5c3CC(C)(C)CC5)CCO4)cc2[nH]1 [Compound 693] | 6 | 5 | 3 | 1120 | 575 |
| Cc1nc2cc(-c3ccc4c(c3)CN(c3nc(CN(C)C)nc(C)c3C(C)C)CCO4)cnc2[nH]1 [Compound 694] | 16 | 6 | 5 | 1850 | 831 |

Results, then the compound that gave them:

| IC50 (mTOR/GbL/Raptor (mTORC1)) [nM] | IC50 (PI3Kα E545K) [nM] | IC50 (PI3Kα H1047R) [nM] | IC50 (PI3Kγ) [nM] | IC50 (PI3Kδ) [nM] | Structure (SMILES) |
| --- | --- | --- | --- | --- | --- |
| 120 | 6 | 7 | 159 | 162 | CCNc1nc2ccc(-c3ccc4c(c3)CN(c3ccnc5cc(F)ccc35)CCO4)cc2[nH]1 [Compound 698] |
| 252 | 5 | 6 | 158 | 440 | CCNc1nc2ccc(-c3ccc4c(c3)CN(c3ncnc(NCC)c3C)CCO4)cc2[nH]1 [Compound 699] |
